Nine compounds from patent US10793567B2, “Bicyclic inhibitors of histone deacetylase” (Rodin Therapeutics, Inc., priority 2017, dated 2020) can be followed below.

Data set [1] is described as follows: Brain and plasma exposure following IV and PO administration to mice. The settings on record: for Projected free brain @ 10 mpk / Brain Cmax @ 10 mpk: 10 mg/kg PO; for half-life / clearance: mouse, plasma; for clearance: read-out: IV PK Cl (converted); for brain Cmax exposure, fold higher than comparator 1 / projected free brain concentration, fold higher than comparator 1: comparator 1 data scaled for comparison. In kind it is in vivo. The procedure:
Compounds were dosed in mice at either 10 mg/kg or 30 mg/kg PO, and were dosed at 1 mg/kg IV. Three animals for collection at each time point for plasma via bleeding at 0.25, 0.5, 1, 4, 12 and 24 h. Terminal bleeding for plasma and sampling for brain at 0.25, 0.5, 1, 4, 12 and 24 h (also three animals per brain exposure time point group). Total of six time points for plasma and six time points for brain.
Plasma: The animal was restrained manually at the designated time points, approximately 150 μL blood/time point was collected into K2EDTA tube via retro orbital puncture or cardiac puncture under anesthesia with Isoflurane. The blood sample was centrifuged (2000 g, 4° C., 5 min) to generate plasma within 30 min after bleeding.
Brain: At the designated time points, a mid-line incision was made in the animals scalp and the skin was retracted. Using small bone cutters and rongeurs, removed the skull overlying the brain. Removed the brain using a spatula and rinse with cold saline. Placed the brain in screw-top tubes, and then stored the tubes under −70° C. until analysis.

Data set [2] has as its target HDAC1 (Homo sapiens (Human), UniProt Q13547). The experiment in a line: HDAC1 enzymatic assay (Caliper LabChip, peptide deacetylation). In kind it is biochemical. The settings on record: 17 hours, 25° C. The procedure: The following describes an assay protocol for measuring the deacetylation of a peptide substrate by the enzymes HDAC2 or HDAC1. Enzyme, substrate, and cofactors are combined in a well of a microtiter plate and incubated for […] at 25° C. At the end of the incubation, the reaction is quenched by the addition of an SDS-containing buffer. Substrate and product are separated and quantified electrophoretically using the microfluidic-based LabChip 3000 Drug Discovery System from Caliper Life Sciences. The peptide substrate used in this assay is FAM-TSRHK(AC)KL-CONH2 (FAM is carboxyfluorescein). Peptide should be >98% purity by Capillary Electrophoresis. • 1. To a well of a 384-well plate, add 5 μL of 2× enzyme buffer. Using Labcyte Echo 550, add 100 nl compound. Enzyme and compound may be pre-incubated at this time if desired. • 2. Add 5 μL of 2× substrate buffer. • 3. Incubate plate at 25° C. for 17 hours. • 4. Terminate reaction by adding 40 μL of 1.55× stop buffer. • 5. Create job on a Caliper LabChip® 3000 Drug Discovery System. • 6. Load the plate and start electrophoresis using blue laser (480 nm) for excitation and green CCD (520 nm) for detection (CCD2). Reaction time=17 hours; Reaction temperature=25° C.
1% DMSO (from compound) 1 μM FAM-TSRHK(AC)KL-CONH2 5 nM HDAC Enzyme (specific activity may vary from lot-to-lot, and enzyme concentration may need to be adjusted to yield˜10-20% conversion of substrate to product).
Substrate and product peptides present in each sample are separated electrophoretically using the LabChip 3000 capillary electrophoresis instrument. As substrate and product peptides are separated, two peaks of fluorescence are observed. Change in the relative fluorescence intensity of the substrate and product peaks is the parameter measured, reflecting enzyme activity. Capillary electrophoregramms (RDA acquisition files) are analyzed using HTS Well Analyzer software (Caliper Life Sciences). The […] in each sample is determined as the product to sum ratio (PSR): P/(S+P), where P is the peak height of the product peptide and S is the peak height of the substrate peptide. For each compound, enzyme activity is measured at various concentrations (12 concentrations of compound spaced by 3× dilution intervals). Negative control samples (0%-inhibition in the absence of inhibitor) and positive control samples (100%-inhibition, in the presence of 20 mM EDTA) are assembled in replicates of four and are used to calculate %-inhibition values for each compound at each concentration. Percent inhibition (Pinh) is determined using following equation: Pinh=(PSR0%−PSRinh)/(PSR0%−PSR100%)*100, where PSRinh is the product sum ratio in the presence of inhibitor, PSR0% is the average product sum ration in the absence of inhibitor and PSR100% is the average product sum ratio in 100%-inhibition control samples.
The IC50 values of inhibitors are determined by fitting the inhibition curves (Pinh versus inhibitor concentration) by 4 parameter sigmoidal dose-response model using XLfit 4 software (IBDS).
In the table, “A” indicates a […] of between 0.1 μM and 0.5 μM and “B” a Kd value of greater than 0.5 μM and less than or equal to 5.0 μM.

The mark [3] stands for this setting: iv, 1 mg/kg, mice, 1 mg/kg IV, read-out: IV PK T1/2 (converted).
[4] abbreviates: po, 10 mg/kg, mice, PO, read-out: PO T1/2 (converted).

Molecules are shown by their SMILES. Values joined by “and” are separate entries in the source; they are usually repeats but may differ in a detail not shown here. Equal entries are not always repeated. Where two headings read alike, the source gives them in different places.

HDAC1, sequence (Q13547 whole entry): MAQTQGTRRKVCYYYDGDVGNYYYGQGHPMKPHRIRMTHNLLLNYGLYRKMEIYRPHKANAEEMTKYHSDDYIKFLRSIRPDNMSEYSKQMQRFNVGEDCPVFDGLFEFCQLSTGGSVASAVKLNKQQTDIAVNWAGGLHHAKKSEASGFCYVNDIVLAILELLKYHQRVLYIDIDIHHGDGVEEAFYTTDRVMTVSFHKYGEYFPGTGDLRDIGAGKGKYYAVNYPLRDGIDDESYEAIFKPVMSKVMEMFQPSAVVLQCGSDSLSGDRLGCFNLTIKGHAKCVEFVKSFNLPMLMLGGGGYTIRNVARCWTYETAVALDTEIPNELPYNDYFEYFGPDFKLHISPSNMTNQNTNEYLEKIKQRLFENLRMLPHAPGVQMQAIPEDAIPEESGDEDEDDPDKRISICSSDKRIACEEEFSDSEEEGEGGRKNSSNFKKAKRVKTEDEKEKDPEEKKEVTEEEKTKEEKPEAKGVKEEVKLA

Regarding `Cc1cc2c(cn1)CN(C(=O)Nc1nc(-c3cccnc3)ccc1N)C2` [Compound 12], in data set [1] (mice), the “Projected free brain @ 10 mpk” value is 0.386 µM and the “Brain Cmax @ 10 mpk” value was 237 ng/g. In data set [1] (setting [3]), the half-life was 30.8 min. The half-life in data set [1] (setting [4]) was 220 min. Further, the clearance in data set [1] (mice, 1 mg/kg IV) is 29.5 mL/min/kg.

In data set [2], `CCc1ncc2c(n1)CN(C(=O)Nc1nc(-c3cccs3)ccc1N)C2` [Compound 3] displayed an IC50 of 500 to 5000 nM. In addition, the “Projected free brain @ 10 mpk” value in data set [1] (mice) was 0.387 µM. The “Brain Cmax @ 10 mpk” value in data set [1] (mice) worked out at 526 ng/g. Also, the half-life was 44.2 min in data set [1] (setting [3]) and 88.8 min in data set [1] (setting [4]). For the same compound, in data set [1] (mice, 1 mg/kg IV), the clearance is 25 mL/min/kg.

For `Cc1ncc(-c2ccc(N)c(NC(=O)N3Cc4cn(CC(F)F)nc4C3)n2)s1` [Compound 5], in data set [2], the half-inhibitory concentration (IC50) was 500 to 5000 nM. In data set [1] (mice), the “Projected free brain @ 10 mpk” value was 0.302 µM and the “Brain Cmax @ 10 mpk” value amounted to 277 ng/g. Further, in data set [1] (setting [3]), the half-life is 169 min. The half-life in data set [1] (setting [4]) was 140 min. For the same compound, the clearance in data set [1] (mice, 1 mg/kg IV) was 5.9 mL/min/kg.

Regarding `Cc1ncc2c(n1)CN(C(=O)Nc1nc(-c3ccc(F)cc3)ccc1N)C2` [Compound 14], the IC50 in data set [2] is 500 to 5000 nM. Further, in data set [1], the “brain Cmax exposure, fold higher than comparator 1” value is 4 fold and the “projected free brain concentration, fold higher than comparator 1” value came out at 4 fold. In data set [1] (mice), the “Projected free brain @ 10 mpk” value came to 0.403 µM and the “Brain Cmax @ 10 mpk” value was 633 ng/g. Further, the half-life in data set [1] (setting [3]) is 125 min. In data set [1] (setting [4]), the half-life is 193 min. Moreover, the clearance in data set [1] (mice, 1 mg/kg IV) was 14.3 mL/min/kg.

As for `Nc1ccc(-c2ccc(F)cc2)nc1NC(=O)N1Cc2cn(C3COC3)nc2C1` [Compound 1], the IC50 in data set [2] is 500 to 5000 nM. In data set [1] (mice), the “Projected free brain @ 10 mpk” value was determined as 0.324 µM and the “Brain Cmax @ 10 mpk” value is on record as 636 ng/g. Further, the half-life in data set [1] (setting [3]) is 187 min. The half-life in data set [1] (setting [4]) was 123 min. Moreover, the clearance in data set [1] (mice, 1 mg/kg IV) is 7.02 mL/min/kg.

In turn, `CCc1ncc2c(n1)CN(C(=O)Nc1nc(-c3ccc(F)cc3)ccc1N)C2` [Compound 17] registered an IC50 in data set [2] of 500 to 5000 nM. Further, in data set [1], the “brain Cmax exposure, fold higher than comparator 1” value is on record as ~7 fold and the “projected free brain concentration, fold higher than comparator 1” value was 5 fold. In data set [1] (mice), the “Projected free brain @ 10 mpk” value stood at 0.568 µM and the “Brain Cmax @ 10 mpk” value was 1241 ng/g. The half-life in data set [1] (setting [3]) is 124 min. The half-life in data set [1] (setting [4]) was 152 min. Moreover, the clearance in data set [1] (mice, 1 mg/kg IV) was 24.8 mL/min/kg.

`CCc1cc2c(cn1)CN(C(=O)Nc1nc(-c3cccnc3)ccc1N)C2` [Compound 8] gave an IC50 in data set [2] of 500 to 5000 nM. Also, in data set [1] (mice), the “Projected free brain @ 10 mpk” value stood at 0.222 µM. The “Brain Cmax @ 10 mpk” value in data set [1] (mice) was determined as 279 ng/g. The values for the half-life in data set [1] (setting [3]) and in data set [1] (setting [4]) were 37.7 min and 76.2 min, respectively. Moreover, in data set [1] (mice, 1 mg/kg IV), the clearance is 35.2 mL/min/kg.

The compound `COCCn1cc2c(n1)CN(C(=O)Nc1nc(-c3ccc(F)cc3F)ccc1N)C2` [Compound 9] returned an IC50 in data set [2] of 500 to 5000 nM. In data set [1] (mice), the “Projected free brain @ 10 mpk” value is 0.881 µM and 0.795 µM. Moreover, the “Brain Cmax @ 10 mpk” value in data set [1] (mice) is 1533 ng/g and 1383 ng/g. The “PO T1/2” value in data set [1] (mice, PO) came out at 1.01 h. The half-life in data set [1] (setting [3]) is 38.6 min; in data set [1] (setting [4]), 83.4 min. In data set [1] (mice, 1 mg/kg IV), the clearance was 27.8 mL/min/kg.

Compound `Cc1ncc2c(n1)CN(C(=O)Nc1nc(-c3ccc(F)s3)ccc1N)C2` [Compound 2] gave an IC50 in data set [2] of 500 to 5000 nM. In addition, in data set [1] (mice), the “Projected free brain @ 10 mpk” value was 0.438 µM and the “Brain Cmax @ 10 mpk” value was determined as 760 ng/g. In addition, in data set [1] (setting [3]), the half-life was 38.6 min. The half-life in data set [1] (setting [4]) is 75 min. Besides, in data set [1] (mice, 1 mg/kg IV), the clearance was 67.7 mL/min/kg.
